The values that follow come from US6887981B2, “Natural antibacterial peptide, the nucleotide sequence encoding it and the use thereof” (Shanghai CAS Shenglonda Biotech (Group) Co., Ltd., priority 2002, dated 2005).

Assay [1] in a line: EDS rat model, androgen (serum testosterone) level after EDS injection. The class given is in vivo, Sprague-Dawley rat. Conditions: adult rat, intraperitoneal EDS 7.5 mg/100 g bodyweight; restored in about two weeks. How it is done: The “▴” line represents rat serum testosterone level at various time intervals after EDS injection. The “♦” line represents rat Bin1b expression changes which are calibrated by 18s level.
Adult Sprague-Dawley was intraperitoneally injected with EDS (7.5 mg/100 g bodyweight) in DMSO-H2O (1:3, v/v). The rats were sacrificed on day 1, 3, 7, 14, 21, 28 and 42. The rat without EDS injection served as the negative control. 20 ug total RNA was extracted from rat caput epididymis, fractionated by 1.2% formaldehyde agarose gel electrophoresis, blotted onto Hybond-N+ membrane and hybridized with a probe located at Bin1b cDNA 3′ terminal and 18s ribosome RNA probe.

For the next assay, the system named is E. coli. The assay can be described thus: Antimicrobial activity of secretions of primary epididymal epithelial cultures, CFU counting. Conditions: concluded from caput culture secretions and antisense block. The class given is cell-based. How it is done: FIG. 7A. […] 100 colony forming units (CFU) of E. coli was added to cultures 16 hours prior to examination.
A total of 100 colony-forming units (CFU) of E. coli was added to the apical compartment of the epithelial cells separately from caput epididymis and cauda epididymis. The medium was collected 16 hours later for CFU counting.

For the molecule `CS(=O)(=O)OCCOS(C)(=O)=O` [EDS, Ethylene Dinethamesulfonate], the “secretion of androgen after EDS injection” value in assay [1] is “decreased immediately”.

B1: Bin1b: natural antibacterial peptide of beta-defensin family expressed in rat caput epididymidis; SEQ ID NO:2, mature form SEQ ID NO:3 (protein, listed as Homo sapiens)
chain: MKVLLLFAVFFCLVQRNSGDIPPGIRNTVCFMQRGHCRLFMCRSGERKGDICSDPWNRCCVSSSIKNR
modifications: ends and bridges not checked
Consider B1, for which the “antimicrobial activity of Bin1b” value in the assay with E. coli is “antimicrobial activity”.
